What was measured:
[1] = cited from earlier work
[2] = in the human body; cited from earlier work
[3] = system: distal caudal fin tissue of a zebrafish; experiment: Tissue regeneration experiment of distal caudal fin of zebrafish (wound model); type: in vivo; details: 3 μM tacrolimus in culture solution, adult zebrafish, 1, 3 and 5 days after amputation, vs DMSO control
Experimental: 1. Experimental fish lines and culturing method are as follows: a wild-type (AB) fish was used as an experimental fish, stored in a flowing water tank at 28±0.5° C. with a pH=7±0.5, a conductivity of an aquaculture water was […]; and a photoperiod was 14 h of lighting and 10 h of darkness. Fresh sandworms were fed three times a day. Raising was conducted in accordance with the guidelines of the Ministry of Science and Technology of the People's Republic of China on the cultivation of experimental animals (2006); all fishes were kept under standard laboratory conditions. 2. Wound model construction is as follows: an adult zebrafish was lightly anesthetized in an anesthetic supplemented with tricaine and placed in a 1.5 g/100 mL agarose tank. A tissue with a length of 2-3 joints and a width of two fin rays on caudal fin surface was excavated using a scalpel blade; a hole was exposed on the caudal fin surface to form a damaged tissue containing a proximal wound and a distal wound. Proximal regenerative tissues were daily removed to prevent the hole from being filled. A regeneration status of the caudal fin was imaged and recorded using a Zeiss Discovery […] microscope (Carl Zeiss, Germany). 3. […]

[4] = system: calcineurin; experiment: Determination of calcineurin activity in caudal fin tissues (malachite green, RII peptide substrate); type: in vivo, zebrafish; details: 3 μM tacrolimus in culture solution, vs DMSO control group non-regenerative tissues
Experimental: 4. […] Free phosphate in the sample was removed, the phosphorylated RII peptide was added, and the sample was incubated at 30° C. for 30 min. Malachite green as a phosphate indicator was added, and the amount of free phosphate in the sample was determined using a SpectraMax® iD3 multi-mode microplate reader (Molecular Devices, USA). The calcineurin activity was normalized to a total protein concentration.

Structure (SMILES): C=CC[C@@H]1/C=C(\C)C[C@H](C)C[C@H](OC)[C@H]2O[C@@](O)(C(=O)C(=O)N3CCCC[C@H]3C(=O)O[C@H](/C(C)=C/[C@@H]3CC[C@@H](O)[C@H](OC)C3)[C@H](C)[C@@H](O)CC1=O)[C@H](C)C[C@@H]2OC [tacrolimus, Tacrolimus]
- stability in aqueous solution [1]: extremely-unstable in aqueous solution and can be rapidly degraded
- half-life [2]: 10.7 h
- regeneration of non-regenerative distal caudal fin tissue [3]: the distal tissue regeneration was initiated
- calcineurin activity in tissue, normalized to total protein concentration [4]: lower than that of the non-regenerative tissues
